In PubChem BioAssay (NCI):
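Results reflect a 48-hour exposure of cells in 96-well plates to compound at five concentrations. TGI: total growth inhibition.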

How the values were obtained:
Experiment in all cases: inhibition of tumour cell growth, NCI panel, 48 h
SN12C renal = system: SN12C renal
RXF 393 renal = system: RXF 393 renal
NCI/ADR-RES ovarian = system: NCI/ADR-RES ovarian
HT29 colon = system: HT29 colon
SK-MEL-28 melanoma = system: SK-MEL-28 melanoma
PC-3 prostate = system: PC-3 prostate
UACC-257 melanoma = system: UACC-257 melanoma
SR leukemia = system: SR leukemia
ACHN renal = system: ACHN renal
HS 578T breast = system: HS 578T breast
MDA-MB-231 breast = system: MDA-MB-231 breast
SF-295 CNS = system: SF-295 CNS
T-47D breast = system: T-47D breast
SF-539 CNS = system: SF-539 CNS
A549 NSCLC = system: A549 NSCLC
NCI-H460 lung = system: NCI-H460 lung
MDA-MB-435 = system: MDA-MB-435
786-0 renal = system: 786-0 renal

| SMILES | TGI (SN12C renal) [µM] | TGI (RXF 393 renal) [µM] | TGI (NCI/ADR-RES ovarian) [µM] | TGI (HT29 colon) [µM] | TGI (SK-MEL-28 melanoma) [µM] | TGI (PC-3 prostate) [µM] | TGI (UACC-257 melanoma) [µM] | TGI (SR leukemia) [µM] | TGI (ACHN renal) [µM] | TGI (HS 578T breast) [µM] | TGI (MDA-MB-231 breast) [µM] | TGI (SF-295 CNS) [µM] | TGI (T-47D breast) [µM] | TGI (SF-539 CNS) [µM] | TGI (A549 NSCLC) [µM] | TGI (NCI-H460 lung) [µM] | TGI (MDA-MB-435) [µM] | TGI (786-0 renal) [µM] |
| --- | --- | --- | --- | --- | --- | --- | --- | --- | --- | --- | --- | --- | --- | --- | --- | --- | --- | --- |
| CC(=O)NC1C(OCc2ccccc2)OC(CO)C(O)C1OC(C)C(=O)NC(C(=O)NC(CCC(=O)NCCCC(=O)Nc1ccc2c(c1)CN1C(=O)c3ccccc3C1=N2)C(N)=O)C(C)C (stereo not drawn) | > 100 | > 100 | > 100 | > 100 | > 100 | > 100 | > 100 | > 100 | > 100 | > 100 | > 100 | > 100 | > 100 | > 100 | > 100 | > 100 | > 100 | > 100 |
| CC(=O)OCC1OC(NC(=S)Nn2c(=O)[nH]c3ccccc3c2=O)C(OC(C)=O)C(OC(C)=O)C1OC(C)=O (stereo not drawn) | > 100 | > 100 | > 100 | > 100 | > 100 | > 100 | > 100 | > 100 | > 100 | > 100 | > 100 | > 100 | > 100 | > 100 | > 100 | > 100 | > 100 | > 100 |
| C[C@]12CC[C@H]3[C@@H](CCC4=CC(=O)CC[C@@H]43)[C@@H]1CC[C@]2(O)C(N)=O | > 100 | > 100 | > 100 | > 100 | > 100 | > 100 | > 100 | > 100 | > 100 | > 100 | > 100 | > 100 | > 100 | > 100 | > 100 | > 100 | > 100 | > 100 |
| O=C1c2ccccc2-c2nnc(-c3ccc([N+](=O)[O-])cc3)cc21 | > 10 | > 10 | > 10 | > 10 | > 10 | > 10 | > 10 | > 10 | > 10 | > 10 | > 10 | > 10 | > 10 | > 10 | > 10 | > 10 | > 10 | > 10 |
| C=CCN1C(=O)/C(=C/c2ccc(Cl)cc2)N=C1SC/C=C/C | 71.1 | 55.3 | > 100 | > 100 | > 100 | > 100 | > 100 | 46.7 | > 100 | > 100 | > 100 | > 100 | > 100 | > 100 | > 100 | > 100 | > 100 | > 100 |
| CCOc1cccc(C=Nc2ccccc2SSc2ccccc2N=Cc2cccc(OCC)c2O)c1O | 35.7 | 34.9 | > 100 | 28.9 | 26.2 | 12.8 | 21.2 | 28.2 | 29.3 | 90.7 | 35 | 37.6 | 10.7 | 80.2 | 26.6 | 20.1 | 23.7 | 19.8 |
